According to BindingDB's records for PubMed 9694973 (Alcon Laboratories, 1998):
Values joined by “and” are separate entries in the source; they are usually repeats but may differ in a detail not shown here. Equal values may be shown once.

How the values were obtained:
[1] = target: Prostaglandin F2-alpha receptor (Bos taurus, UniProt P37289)
[2] = target: T1, Prostaglandin E2 receptor EP3 subtype (Bos taurus, UniProt P34979)
T1 sequence (P34979 whole entry): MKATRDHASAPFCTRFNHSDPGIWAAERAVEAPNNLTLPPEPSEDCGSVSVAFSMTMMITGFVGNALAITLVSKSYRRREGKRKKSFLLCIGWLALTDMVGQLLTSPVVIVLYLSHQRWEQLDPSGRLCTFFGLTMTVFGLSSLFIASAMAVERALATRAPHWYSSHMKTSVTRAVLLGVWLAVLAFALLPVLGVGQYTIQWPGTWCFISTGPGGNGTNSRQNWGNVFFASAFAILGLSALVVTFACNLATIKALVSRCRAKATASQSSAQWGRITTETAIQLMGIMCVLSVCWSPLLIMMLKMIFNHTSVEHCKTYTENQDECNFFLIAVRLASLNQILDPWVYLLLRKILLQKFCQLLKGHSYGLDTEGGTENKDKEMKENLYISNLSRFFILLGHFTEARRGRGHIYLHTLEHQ

Chain of Prostaglandin F2-alpha receptor (P37289 whole entry): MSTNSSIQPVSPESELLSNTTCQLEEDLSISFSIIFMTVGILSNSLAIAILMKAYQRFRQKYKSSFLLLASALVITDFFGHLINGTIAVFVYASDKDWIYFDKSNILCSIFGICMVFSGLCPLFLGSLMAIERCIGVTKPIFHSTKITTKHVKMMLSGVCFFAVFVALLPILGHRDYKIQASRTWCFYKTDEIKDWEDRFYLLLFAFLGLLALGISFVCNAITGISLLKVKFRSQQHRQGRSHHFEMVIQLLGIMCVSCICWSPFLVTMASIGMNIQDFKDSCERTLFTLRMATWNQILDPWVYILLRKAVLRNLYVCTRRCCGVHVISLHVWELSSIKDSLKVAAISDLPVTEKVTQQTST

## CCCCC[C@@H](O)/C=C/[C@H]1[C@H](O)CC(=O)[C@@H]1CCCCCCC(=O)O
[1]
  Ki: > 10000 nM
[2]
  Ki: 2 nM and 4 nM

## CC#CCC(C)[C@H](O)/C=C/[C@@H]1[C@H]2C/C(=C/CCCC(=O)O)C[C@H]2C[C@H]1O (some centres not stated)
[2]
  Ki: 265 nM

## O=C(O)CCCC=CCC1C(O)CC(O)C1C=CC(O)COc1cccc(C(F)(F)F)c1 (configuration not stated) [CAS_40666-16-8]
[1]
  Ki: 100 nM
[2]
  Ki: 3170 nM and 3500 nM

## COC(=O)CCC=CCCC1C(=O)CC(O)C1C=CCC(C)(O)C=CC1=CCCC1 (configuration not stated) [CAS_132045]
[2]
  Ki: 29 nM

## CCCCC[C@H](O)/C=C/C1[C@@H](C/C=C\CCCC(=O)O)[C@H]2CO[C@@H]1C2 (some centres not stated) [U46619]
[1]
  Ki: 8900 nM
[2]
  Ki: > 10000 nM

## O=C(O)CCCC=CC[C@@H]1[C@@H](CC[C@@H](O)CCc2ccccc2)[C@H](O)C[C@@H]1O [NSC_170548]
[1]
  Ki: 98 nM
[2]
  Ki: > 10000 nM and 7940 nM

## CCCCCC(O)CC=C1C(=O)C=CC1CC=CCCCC(=O)O (configuration not stated) [CAS_41598-07-6]
[1]
  Ki: 2500 nM
[2]
  Ki: 1580 nM and 1110 nM

## CCCC1([C@@H](O)C/C=C/C2[C@H](O)CC(=O)[C@@H]2CCCCCCC(=O)OC)CCC1 (some centres not stated) [Butaprost (Methyl Ester)]
[2]
  Ki: > 10000 nM

## CS(=O)(=O)NC(=O)CCCC=CCC1C(=O)CC(O)C1C=CC(O)COc1ccccc1 (configuration not stated) [CAS_60325-46-4]
[1]
  Ki: 2500 nM
[2]
  Ki: 21 nM and 11 nM

## CC(C)OC(=O)CCC/C=C\C[C@@H]1[C@@H](/C=C/[C@@H](O)CCc2ccccc2)[C@H](O)C[C@@H]1O [CAS_130209-76-6]
[1]
  Ki: 59 nM
[2]
  Ki: 388 nM

## O=C(O)CCC/C=C\C[C@H]1C(=O)C[C@@H](O)[C@@H]1/C=C/[C@@H](O)CCc1ccccc1 [17-PHENYL TRINOR PROSTAGLANDIN E2]
[1]
  Ki: 1410 nM
[2]
  Ki: 16 nM and 7 nM

## CCCCC[C@H](O)/C=C/[C@@H]1[C@H]2C/C(=C\CCCC(=O)O)C[C@H]2C[C@H]1O
[1]
  Ki: > 10000 nM
[2]
  Ki: 4860 nM and 5370 nM

## O=C(CCC=CCCC1C(=O)CC(O)C1OCC(O)COc1ccccc1)Oc1ccc(NC(=O)c2ccccc2)cc1 (configuration not stated) [NSC_5311224]
[1]
  Ki: > 10000 nM
[2]
  Ki: 8 nM and 11 nM

## CCCCC[C@H](O)/C=C/C1[C@H](O)C[C@H](O)[C@@H]1C/C=C\CCCC(=O)O (stereo partly drawn) [(Z)-7-[(1R,3R,5S)-3,5-Dihydroxy-2-((E)-(S)-3-hydroxy-oct-1-enyl)-cyclopentyl]-hept-5-enoic acid]
[2]
  Ki: 37 nM and 24 nM

## O=C(O)CCC/C=C\C[C@@H]1[C@@H](/C=C/[C@@H](O)COc2cccc(Cl)c2)[C@H](O)C[C@@H]1O [CLOPROSTENOL]
[2]
  Ki: 90 nM and 91 nM

## O=C(O)CCC/C=C\C[C@@H]1[C@@H](/C=C/[C@@H](O)COc2ccccc2)[C@H](O)C[C@@H]1O [PGF2Alpha,16-Phenoxy]
[1]
  Ki: 22 nM

## O=C(O)CCCCCCc1c(O)n(Cc2ccccc2)c(=O)n1NCC(O)C1CCCCC1 (configuration not stated) [CAS_122021]
[1]
  Ki: > 10000 nM
[2]
  Ki: > 10000 nM

## CCCCC[C@H](O)/C=C/[C@H]1[C@H](O)CC(=O)[C@@H]1C/C=C\CCCC(=O)O [DINOPROSTONE]
[1]
  Ki: 3400 nM
[2]
  Ki: 4 nM and 3 nM

## CC(=O)NNC(=O)N1Cc2ccccc2Oc2ccc(Cl)cc21 [CAS_4336830]
[2]
  Ki: 3000 nM and > 10000 nM

## CCCCC(C)(O)CC=CC1C(O)CC(=O)C1CCCCCCC(=O)OC (configuration not stated) [MISOPROSTOL (Methyl Ester)]
[2]
  Ki: 25 nM and 54 nM

## CCCCCCCC(=O)CCC1C(O)CC(O)C1CC=CCCCC(=O)OC(C)C (configuration not stated) [CAS_151671]
[1]
  Ki: 5900 nM
[2]
  Ki: > 10000 nM

## O=NN1CSCSC1 [NSC_130741]
[1]
  Ki: > 10000 nM
[2]
  Ki: > 10000 nM

## CC(C)OC(=O)CCC/C=C/C[C@@H]1[C@@H](CC[C@@H](O)CCc2ccccc2)[C@H](O)C[C@@H]1O [LATANOPROST (PHXA41)]
[1]
  Ki: 4200 nM
[2]
  Ki: > 10000 nM

## CC1CCCCC1C(O)C=CC1C(O)CC(Cl)C1CC=CCOCC(=O)O (configuration not stated) [CAS_5311208]
[1]
  Ki: > 10000 nM
[2]
  Ki: 8740 nM

## COC(=O)CCC=C=CCC1C(=O)CC(O)C1C=CC(O)COc1ccccc1 (configuration not stated) [NSC_5282207]
[1]
  Ki: 1000 nM
[2]
  Ki: 12 nM and 25 nM
